Calls of active or inactive are those of the source. The rule behind the calls is not given here.
Tests used:
[1] = target: RAF proto-oncogene serine/threonine-protein kinase (Homo sapiens, UniProt P04049); assay: Inhibition of RAF1 Lys2 labeling site in human Huh-7 cell lysate at 1 uM by KiNativ Profiling analysis relative to control; assay type: subcellular
[2] = target: Microtubule-associated serine/threonine-protein kinase 3 (Homo sapiens) (UniProt O60307); assay: Inhibition of MAST3 Lys2 labeling site in human Huh-7 cell lysate at 1 uM by KiNativ Profiling analysis relative to control; assay type: subcellular
Sequence of Microtubule-associated serine/threonine-protein kinase 3 (Homo sapiens) (O60307 whole entry): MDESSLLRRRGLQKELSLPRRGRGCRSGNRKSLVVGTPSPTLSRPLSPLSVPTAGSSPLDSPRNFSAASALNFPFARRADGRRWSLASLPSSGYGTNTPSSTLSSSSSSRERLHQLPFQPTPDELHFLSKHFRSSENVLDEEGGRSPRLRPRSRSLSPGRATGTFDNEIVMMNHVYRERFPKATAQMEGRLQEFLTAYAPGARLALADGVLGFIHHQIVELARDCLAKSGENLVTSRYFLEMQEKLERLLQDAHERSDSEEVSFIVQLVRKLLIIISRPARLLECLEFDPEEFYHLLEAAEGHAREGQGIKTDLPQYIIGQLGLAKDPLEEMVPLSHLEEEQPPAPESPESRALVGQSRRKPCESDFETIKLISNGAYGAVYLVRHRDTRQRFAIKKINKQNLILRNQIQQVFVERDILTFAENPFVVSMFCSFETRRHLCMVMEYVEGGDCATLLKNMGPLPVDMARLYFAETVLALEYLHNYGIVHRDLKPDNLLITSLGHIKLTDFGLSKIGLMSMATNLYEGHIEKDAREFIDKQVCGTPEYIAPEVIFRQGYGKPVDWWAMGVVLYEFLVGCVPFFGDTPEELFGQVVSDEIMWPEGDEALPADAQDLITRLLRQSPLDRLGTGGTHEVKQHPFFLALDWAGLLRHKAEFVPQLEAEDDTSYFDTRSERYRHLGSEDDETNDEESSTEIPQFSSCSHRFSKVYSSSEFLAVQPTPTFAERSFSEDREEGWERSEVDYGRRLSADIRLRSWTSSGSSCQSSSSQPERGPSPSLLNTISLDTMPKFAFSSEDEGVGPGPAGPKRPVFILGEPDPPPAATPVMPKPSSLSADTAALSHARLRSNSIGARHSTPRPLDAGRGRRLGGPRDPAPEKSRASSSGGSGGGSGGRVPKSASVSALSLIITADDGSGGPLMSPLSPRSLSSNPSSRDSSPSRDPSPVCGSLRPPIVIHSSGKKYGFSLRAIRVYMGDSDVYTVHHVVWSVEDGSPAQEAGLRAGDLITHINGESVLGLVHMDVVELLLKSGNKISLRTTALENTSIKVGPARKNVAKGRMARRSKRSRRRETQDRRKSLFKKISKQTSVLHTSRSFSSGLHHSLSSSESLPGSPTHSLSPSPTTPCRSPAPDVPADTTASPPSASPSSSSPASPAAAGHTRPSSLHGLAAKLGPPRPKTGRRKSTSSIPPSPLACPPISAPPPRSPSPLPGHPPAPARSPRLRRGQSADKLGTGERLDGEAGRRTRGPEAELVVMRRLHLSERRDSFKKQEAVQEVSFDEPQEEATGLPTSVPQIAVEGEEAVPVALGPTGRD

[3] = target: Phosphatidylinositol 4-kinase beta (Homo sapiens) (UniProt Q9UBF8); assay: Inhibition of PI4KB ATP labeling site harbouring VPHTQAVVLNSKDKAPYLIYVEVLECENFDTTSVPARIPENR in human Huh-7 cell lysate at 1 uM by KiNativ Profiling analysis relative to control; assay type: subcellular
Sequence of Phosphatidylinositol 4-kinase beta (Homo sapiens) (Q9UBF8 2-816 limits assumed): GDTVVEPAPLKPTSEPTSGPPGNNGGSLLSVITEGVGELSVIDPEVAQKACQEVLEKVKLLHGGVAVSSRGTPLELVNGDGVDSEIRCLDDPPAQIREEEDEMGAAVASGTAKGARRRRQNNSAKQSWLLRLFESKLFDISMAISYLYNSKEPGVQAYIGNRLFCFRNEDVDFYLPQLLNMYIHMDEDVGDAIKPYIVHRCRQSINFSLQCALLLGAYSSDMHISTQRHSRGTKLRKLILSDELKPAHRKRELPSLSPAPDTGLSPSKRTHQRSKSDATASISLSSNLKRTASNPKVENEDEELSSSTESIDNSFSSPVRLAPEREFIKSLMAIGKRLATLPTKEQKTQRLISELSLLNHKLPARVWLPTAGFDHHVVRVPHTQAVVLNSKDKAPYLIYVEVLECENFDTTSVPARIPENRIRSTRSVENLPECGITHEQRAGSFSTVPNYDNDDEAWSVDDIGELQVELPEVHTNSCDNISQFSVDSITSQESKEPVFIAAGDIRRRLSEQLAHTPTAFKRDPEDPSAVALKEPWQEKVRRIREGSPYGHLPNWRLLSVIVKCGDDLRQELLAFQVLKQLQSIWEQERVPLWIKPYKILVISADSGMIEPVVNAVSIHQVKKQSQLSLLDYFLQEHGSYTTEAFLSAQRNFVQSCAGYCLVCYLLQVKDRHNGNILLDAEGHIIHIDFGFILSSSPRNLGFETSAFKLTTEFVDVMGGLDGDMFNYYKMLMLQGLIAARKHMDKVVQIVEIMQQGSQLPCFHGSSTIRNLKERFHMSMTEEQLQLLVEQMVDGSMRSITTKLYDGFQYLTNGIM

[4] = target: Ribosomal protein S6 kinase alpha-1 (Homo sapiens) (UniProt Q15418); assay: Inhibition of RSK1 domain2 Lys2 labeling site in human Huh-7 cell lysate at 1 uM by KiNativ Profiling analysis relative to control; assay type: subcellular
Sequence of Ribosomal protein S6 kinase alpha-1 (Homo sapiens) (Q15418 whole entry, the tested form may be a part): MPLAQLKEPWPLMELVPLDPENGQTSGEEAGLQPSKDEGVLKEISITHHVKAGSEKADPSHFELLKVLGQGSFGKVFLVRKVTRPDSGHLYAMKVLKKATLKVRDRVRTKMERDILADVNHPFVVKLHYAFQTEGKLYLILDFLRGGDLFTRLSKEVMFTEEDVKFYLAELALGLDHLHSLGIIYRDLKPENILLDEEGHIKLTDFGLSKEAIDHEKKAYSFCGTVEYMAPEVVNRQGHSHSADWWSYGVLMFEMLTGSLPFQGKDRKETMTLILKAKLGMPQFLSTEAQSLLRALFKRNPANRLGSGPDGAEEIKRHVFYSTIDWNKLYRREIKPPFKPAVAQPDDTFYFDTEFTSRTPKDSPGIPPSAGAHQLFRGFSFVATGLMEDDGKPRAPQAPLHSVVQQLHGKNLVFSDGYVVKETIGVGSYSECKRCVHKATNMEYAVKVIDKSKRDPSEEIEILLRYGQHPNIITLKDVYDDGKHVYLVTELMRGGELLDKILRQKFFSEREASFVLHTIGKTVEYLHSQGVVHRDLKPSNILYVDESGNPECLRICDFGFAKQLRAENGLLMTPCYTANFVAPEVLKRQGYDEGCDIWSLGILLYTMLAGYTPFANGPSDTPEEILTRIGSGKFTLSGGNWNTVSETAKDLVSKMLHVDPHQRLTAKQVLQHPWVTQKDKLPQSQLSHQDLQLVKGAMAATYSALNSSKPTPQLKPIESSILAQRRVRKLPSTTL

[5] = target: Tyrosine-protein kinase ABL2 (Homo sapiens, UniProt P42684); assay: Inhibition of ARG ACT labeling site in human Huh-7 cells at 1 uM by KiNativ Profiling analysis relative to control; assay type: cell-based
[6] = target: Serine/threonine-protein kinase WNK4 (Homo sapiens) (UniProt Q96J92); assay: Inhibition of Wnk4 Lys2 labeling site in human Huh-7 cells at 1 uM by KiNativ Profiling analysis relative to control; assay type: cell-based
[7] = target: Aurora kinase B (Homo sapiens) (UniProt Q96GD4); assay: Inhibition of AURKB (unknown origin) at 10 uM by Ambit Kinomescan binding assay
[8] = target: Casein kinase I isoform delta (Homo sapiens) (UniProt P48730); assay: Inhibition of CSNK1D (unknown origin) at 10 uM by Ambit Kinomescan binding assay
Sequence of Casein kinase I isoform delta (Homo sapiens) (P48730 whole entry, looked up, canonical isoform): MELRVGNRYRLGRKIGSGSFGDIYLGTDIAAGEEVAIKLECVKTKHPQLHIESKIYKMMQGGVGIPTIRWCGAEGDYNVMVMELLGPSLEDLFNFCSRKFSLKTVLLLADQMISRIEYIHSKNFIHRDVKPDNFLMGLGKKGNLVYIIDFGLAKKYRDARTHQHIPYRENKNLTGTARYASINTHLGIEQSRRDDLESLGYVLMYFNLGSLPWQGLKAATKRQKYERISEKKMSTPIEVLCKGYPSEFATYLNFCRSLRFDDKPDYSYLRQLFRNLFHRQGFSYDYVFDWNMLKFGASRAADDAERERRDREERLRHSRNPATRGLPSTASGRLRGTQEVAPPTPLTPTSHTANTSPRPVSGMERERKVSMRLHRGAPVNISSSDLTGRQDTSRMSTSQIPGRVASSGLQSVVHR

[9] = target: Mitogen-activated protein kinase 6 (Homo sapiens) (UniProt Q16659); assay: Inhibition of ERK3 (unknown origin) at 10 uM by Ambit Kinomescan binding assay
Sequence of Mitogen-activated protein kinase 6 (Homo sapiens) (Q16659 whole entry): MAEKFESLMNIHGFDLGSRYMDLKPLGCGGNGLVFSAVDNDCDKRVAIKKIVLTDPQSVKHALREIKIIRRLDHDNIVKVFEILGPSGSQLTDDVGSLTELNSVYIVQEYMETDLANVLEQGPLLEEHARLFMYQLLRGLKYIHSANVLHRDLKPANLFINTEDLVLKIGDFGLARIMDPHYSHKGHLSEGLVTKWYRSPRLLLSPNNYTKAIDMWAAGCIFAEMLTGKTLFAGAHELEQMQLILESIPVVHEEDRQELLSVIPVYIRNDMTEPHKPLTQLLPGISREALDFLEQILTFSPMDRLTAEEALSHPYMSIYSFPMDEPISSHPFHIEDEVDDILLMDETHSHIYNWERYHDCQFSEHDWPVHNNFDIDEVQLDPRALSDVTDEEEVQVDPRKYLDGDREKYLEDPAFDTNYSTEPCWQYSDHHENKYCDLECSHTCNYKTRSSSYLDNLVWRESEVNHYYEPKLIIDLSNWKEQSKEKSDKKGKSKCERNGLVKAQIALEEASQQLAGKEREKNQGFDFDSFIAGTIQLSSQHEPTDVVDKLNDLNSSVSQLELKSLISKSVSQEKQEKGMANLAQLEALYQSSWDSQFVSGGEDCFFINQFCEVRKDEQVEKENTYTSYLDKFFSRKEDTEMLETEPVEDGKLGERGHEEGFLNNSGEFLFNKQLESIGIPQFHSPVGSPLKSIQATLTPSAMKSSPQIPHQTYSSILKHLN

[10] = tested on: Receptor-type tyrosine-protein kinase FLT3 (Homo sapiens), P36888 [D835H]; assay: Inhibition of FLT3 D835H mutant (unknown origin) at 10 uM by Ambit Kinomescan binding assay relative to control
[11] = target: LIM domain kinase 1 (Homo sapiens) (UniProt P53667); assay: Inhibition of LIMK1 (unknown origin) at 10 uM by Ambit Kinomescan binding assay
[12] = target: Serine/threonine-protein kinase PAK 5 (Homo sapiens) (UniProt Q9P286); assay: Inhibition of PAK7 (unknown origin) at 10 uM by Ambit Kinomescan binding assay
[13] = target: Ribosomal protein S6 kinase alpha-1 (Homo sapiens) (UniProt Q15418); assay: Inhibition of C-terminal RPS6KA1 kinase domain 2 (unknown origin) at 10 uM by Ambit Kinomescan binding assay
[14] = target: SRSF protein kinase 1 (Homo sapiens) (UniProt Q96SB4); assay: Inhibition of SRPK1 (unknown origin) at 10 uM by Ambit Kinomescan binding assay
[15] = target: Interleukin-1 receptor-associated kinase 1 (Homo sapiens) (UniProt P51617); assay: Inhibition of IRAK1 Lys2 labeling site in human A-375 cells at 0.5 uM by KiNativ Profiling analysis relative to control; assay type: cell-based
[16] = target: Mitogen-activated protein kinase 14 (Homo sapiens, UniProt Q16539); assay: Inhibition of p38alpha K2 labeling site in human Huh-7 cells at 1 uM by KiNativ Profiling analysis relative to control; assay type: cell-based
[17] = target: Cyclin-dependent kinase 7 (Homo sapiens) (UniProt P50613); assay: Inhibition of CDK7 K2 labeling site in human Huh-7 cells at 1 uM by KiNativ Profiling analysis relative to control; assay type: cell-based
Sequence of Cyclin-dependent kinase 7 (Homo sapiens) (P50613 whole entry): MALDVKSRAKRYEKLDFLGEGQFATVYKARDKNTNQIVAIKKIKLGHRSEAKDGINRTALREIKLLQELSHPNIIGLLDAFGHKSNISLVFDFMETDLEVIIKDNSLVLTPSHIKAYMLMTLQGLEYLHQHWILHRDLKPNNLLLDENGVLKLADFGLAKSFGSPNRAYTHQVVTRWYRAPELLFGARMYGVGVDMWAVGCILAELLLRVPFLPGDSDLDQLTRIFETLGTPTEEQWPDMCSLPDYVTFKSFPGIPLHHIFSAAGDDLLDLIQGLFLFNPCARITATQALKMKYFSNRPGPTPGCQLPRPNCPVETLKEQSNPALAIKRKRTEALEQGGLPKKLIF

[18] = target: T1, Phosphatidylinositol 5-phosphate 4-kinase type-2 gamma (Homo sapiens) (UniProt Q8TBX8); assay: Inhibition of PIP5K2C ATP labeling site harbouring VKELPTLKDMDFLNK in human Huh-7 cells at 1 uM by KiNativ Profiling analysis relative to control; assay type: cell-based
T1 sequence (whole entry): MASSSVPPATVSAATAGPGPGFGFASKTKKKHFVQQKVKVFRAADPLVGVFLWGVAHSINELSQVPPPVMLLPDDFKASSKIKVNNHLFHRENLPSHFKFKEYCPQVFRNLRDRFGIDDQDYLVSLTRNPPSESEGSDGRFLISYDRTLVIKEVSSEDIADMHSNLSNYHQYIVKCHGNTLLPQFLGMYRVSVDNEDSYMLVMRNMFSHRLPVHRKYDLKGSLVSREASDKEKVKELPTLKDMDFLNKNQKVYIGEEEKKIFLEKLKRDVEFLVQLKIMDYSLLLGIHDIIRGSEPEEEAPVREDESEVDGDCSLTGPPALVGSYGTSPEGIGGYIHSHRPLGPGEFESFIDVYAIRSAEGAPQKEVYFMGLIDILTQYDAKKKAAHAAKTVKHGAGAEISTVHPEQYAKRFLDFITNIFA

[19] = target: Serine/threonine-protein kinase N2 (Homo sapiens) (UniProt Q16513); assay: Inhibition of PKN2 K2 labeling site in human Huh-7 cells at 1 uM by KiNativ Profiling analysis relative to control; assay type: cell-based
[20] = target: Microtubule-associated serine/threonine-protein kinase 1 (Homo sapiens) (UniProt Q9Y2H9); assay: Inhibition of MAST1 Lys2 labeling site in human A-375 cells at 5 uM by KiNativ Profiling analysis relative to control
[21] = target: Serine/threonine-protein kinase 36 (Homo sapiens) (UniProt Q9NRP7); assay: Inhibition of STK36 (unknown origin) at 10 uM by Ambit Kinomescan binding assay relative to control; values are per cent of control
[22] = tested on: Epidermal growth factor receptor (Homo sapiens), P00533 [L858R]; assay: Inhibition of EGFR L858R mutant (unknown origin) at 1 uM by Ambit Kinomescan binding assay relative to control
[23] = target: Tyrosine-protein kinase receptor TYRO3 (Homo sapiens) (UniProt Q06418); assay: Inhibition of TYRO3 (unknown origin) at 1 uM by Ambit Kinomescan binding assay relative to control
[24] = target: MAP/microtubule affinity-regulating kinase 3 (Homo sapiens) (UniProt P27448); assay: Inhibition of MARK3 Lys2 labeling site in human A-375 cells at 0.5 uM by KiNativ Profiling analysis relative to control; assay type: cell-based
[25] = target: Tyrosine-protein kinase Yes (Homo sapiens) (UniProt P07947); assay: Inhibition of YES ACT labeling site in human A-375 cells at 0.05 uM by KiNativ Profiling analysis relative to control; assay type: cell-based
Sequence of Tyrosine-protein kinase Yes (Homo sapiens) (P07947 2-543 limits assumed): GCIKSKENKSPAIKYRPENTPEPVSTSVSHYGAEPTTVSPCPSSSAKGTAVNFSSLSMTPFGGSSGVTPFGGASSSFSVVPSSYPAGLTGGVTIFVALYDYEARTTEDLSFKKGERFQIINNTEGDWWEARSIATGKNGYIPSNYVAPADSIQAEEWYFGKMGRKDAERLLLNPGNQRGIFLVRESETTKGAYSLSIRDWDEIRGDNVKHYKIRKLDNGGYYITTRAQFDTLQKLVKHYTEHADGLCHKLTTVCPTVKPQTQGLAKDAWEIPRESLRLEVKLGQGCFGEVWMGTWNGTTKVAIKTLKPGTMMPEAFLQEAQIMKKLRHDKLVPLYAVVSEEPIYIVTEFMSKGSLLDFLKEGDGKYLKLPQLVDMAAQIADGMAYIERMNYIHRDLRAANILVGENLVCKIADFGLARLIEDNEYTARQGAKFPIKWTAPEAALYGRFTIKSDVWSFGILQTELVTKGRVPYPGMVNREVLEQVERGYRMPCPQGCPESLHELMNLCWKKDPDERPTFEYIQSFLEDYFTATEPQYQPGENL

[26] = target: Phosphatidylinositol 4-kinase beta (Homo sapiens) (UniProt Q9UBF8); assay: Inhibition of PI4KB ATP labeling site harbouring VPHTQAVVLNSKDK in human A-375 cells at 0.05 uM by KiNativ Profiling analysis relative to control; assay type: cell-based
[27] = tested on: Proto-oncogene tyrosine-protein kinase receptor Ret (Homo sapiens), P07949 [M918T]; assay: Inhibition of RET M918T mutant (unknown origin) at 1 uM by Ambit Kinomescan binding assay relative to control; values are per cent of control

## CNc1cc(Oc2cc(C(=O)Nc3cc(N4CCN(C)CC4)cc(C(F)(F)F)c3)ccc2C)ncn1
[1]
  inhibition: 23.2%
[2]
  inhibition: -0.3%
[3]
  inhibition: 14.7%
[4]
  inhibition: -2%
[5]
  inhibition: 31.6%
[6]
  inhibition: 44.2%

## CCN1CCN(Cc2ccc(NC(=O)c3ccc(C)c(Oc4ccnc5[nH]ccc45)c3)cc2C(F)(F)F)CC1
[7]
  inhibition: inactive
[8]
  inhibition: inactive
[9]
  inhibition: inactive
[10]
  inhibition: 1.2%
[11]
  inhibition: inactive
[12]
  inhibition: inactive
[13]
  inhibition: inactive
[14]
  inhibition: inactive
[15]
  inhibition: 2.5%
[16]
  inhibition: 7.1%
[17]
  inhibition: 5.6%
[18]
  inhibition: 2.9%
[19]
  inhibition: -6.3%
[20]
  inhibition: -6.1%
[21]
  residual activity: 0.2%

## CCN1CCN(Cc2ccc(NC(=O)c3ccc(C)c(/C=C/c4cnc5[nH]ccc5c4OC)c3)cc2C(F)(F)F)CC1
[22]
  inhibition: 4%
[23]
  inhibition: 76%
[24]
  inhibition: 9.1%
[25]
  inhibition: 38.9%
[26]
  inhibition: -10%
[27]
  % of control: 0.05%

Source: ChEMBL document CHEMBL5696442, “Discovery of type II inhibitors of TGFβ-activated kinase 1 (TAK1) and mitogen-activated protein kinase kinase kinase kinase 2 (MAP4K2)” (J Med Chem, 2015)
